Measured values: publication PMC3285636, “Identification by Virtual Screening and In Vitro Testing of Human DOPA Decarboxylase Inhibitors” (PLoS ONE, 2012)
“Also recorded” adds a separate entry of the source. Read-outs that look alike come from different tables or passages of the source. Marks after values point to notes of the source that are not given here.

Columns and labels:
[1] = target: T1, human DDC (Homo sapiens, UniProt P20711); assay: Assay of the inhibitory activity: spectrophotometric measurement of dopamine production by DDC; type: biochemical; settings: for IC50: 0.1 mM L-Dopa, pH 7.4, 25°C, 9 concentrations in duplicate; for BE (binding efficiency): binding energy per unit of mass, from Ki and molecular weight in kDa; for Inhibition profile: type of inhibition from Lineweaver–Burk plots; for Ki′: mixed or noncompetitive inhibition
T1 construct: made in house
T1 sequence (P20711 1-480): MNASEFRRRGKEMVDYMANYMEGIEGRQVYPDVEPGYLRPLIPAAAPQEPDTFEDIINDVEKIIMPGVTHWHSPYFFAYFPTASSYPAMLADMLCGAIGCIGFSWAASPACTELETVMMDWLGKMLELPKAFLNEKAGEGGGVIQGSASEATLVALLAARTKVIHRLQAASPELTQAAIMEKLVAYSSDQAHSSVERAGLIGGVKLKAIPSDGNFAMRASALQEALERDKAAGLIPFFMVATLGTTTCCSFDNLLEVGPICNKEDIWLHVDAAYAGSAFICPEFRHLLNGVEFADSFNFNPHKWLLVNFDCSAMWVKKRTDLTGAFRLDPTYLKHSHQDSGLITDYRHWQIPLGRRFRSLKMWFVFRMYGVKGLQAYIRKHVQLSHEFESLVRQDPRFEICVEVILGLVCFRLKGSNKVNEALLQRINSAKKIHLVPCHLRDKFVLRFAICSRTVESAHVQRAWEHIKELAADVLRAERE
Description: DDC activity was determined by measuring the production of dopamine with a spectrophotometric assay outlined by Sherald et al. and modified by Charteris and John. The reaction was carried out in 0.1 M potassium phosphate buffer pH 7.4 at 25°C for 1 min and stopped by inactivation of the enzyme at 100°C for 90 sec. The inhibitory assay was performed by measuring the decarboxylase activity of DDC with 50 nM enzyme, 0.1 mM L-Dopa, and 10 µM PLP in the presence and in the absence of a fixed amount of each compound. Various amounts of dimethyl sulphoxyde (DMSO) were necessary to solubilize the compounds in 100 mM potassium phosphate buffer, pH 7.4. […] Compounds were evaluated at 9 concentrations, and each in duplicate. IC50 values were derived by nolinear regression analysis. The related inhibition type of the compounds on human DDC was identified from Lineweaver–Burk plots, and Ki and/or Ki′ values for the inhibitors tested were calculated by the software Origin 7.0.

[2] = target: T1, human DDC; assay: Enzyme-ligand equilibrium dissociation constant from visible CD signal changes of DDC; type: binding; settings: change of 420 nm or 335 nm CD band, 100 mM potassium phosphate pH 7.4
Description: The equilibrium dissociation constant for each tested compound from DDC was determined by monitoring the decrease in the 420 nm CD signal of DDC (7 µM) in the presence of various ligand concentrations in 100 mM potassium phosphate buffer, pH 7.4. In any case, the maximun DMSO concentration in the mixture was kept lower than 1% (v/v). The KD values were obtained from the fitting of the data to the equation [drawing 3] where [E]t and [L]t represent the total concentrations of DDC dimer and ligand, respectively, Y refers to the visible CD signal change at 420 nm at the ligand concentration [L], and Ymax refers to the CD signal when all enzyme molecules are complexed with the ligand. CD measurements were performed with a Jasco J-710 spectropolarimeter using quartz cuvettes with 1 cm path length.

[3] = 50 nM enzyme, 10 µM PLP, read-out: IC50
[4] = 50 nM enzyme, L-Dopa, 10 µM PLP, 0.1 M potassium phosphate pH 7.4, 25°C, from Lineweaver–Burk plots, read-out: Ki
[5] = at a concentration in which solubility of the compound was maximum
[6] = 0.1 M potassium phosphate pH 7.4, 25°C, from Lineweaver–Burk plots
[7] = Ki, competitive inhibition, Table 4, third screening
[8] = competitive inhibition, Table 4, third screening, read-out: Ki

| SMILES | IC50 [1, 3] [µM] | Ki [1, 4] [µM] | BE (binding efficiency) [1] | Inhibition profile [1] | Kd [2] [µM] | further results |
| --- | --- | --- | --- | --- | --- | --- |
| O=S(=O)(c1ccc2nnn(O)c2c1)N1CCCCC1 [Compound 2] | 1500 ± 220 | 390 ± 30 | 12.1 | competitive inhibition | 516 ± 126 | Inhibition of DDC activity [1, 5]: ≥ 70% |
| CCOc1cc(-c2ccc(O)c(O)c2)cc(=O)c2c(C)oc(C)c12 [Compound 6] |  |  |  |  |  | Inhibition of DDC activity [1, 5]: do not inhibit DDC activity |
| Cc1cccc(NC(=O)COC(=O)c2[nH]c(=O)[nH]c(=O)c2N)c1C [Compound 8] |  |  |  |  |  | Inhibition of DDC activity [1, 5]: do not inhibit DDC activity |
| Nc1c(S(=O)(=O)c2ccccc2)c2nc3ccccc3nc2n1/N=C/c1ccc(O)c(O)c1 [Compound 12] |  |  |  | noncompetitive inhibition |  | Inhibition of DDC activity [1, 5]: ~55%; Ki′ [1, 6]: 19.4±1.4^b µM |
| CC(C)C(NC(=O)Cc1n[nH]c(=O)c2ccccc12)c1nc2ccccc2[nH]1 (centres unmarked) [Compound 13] |  |  |  |  |  | Inhibition of DDC activity [1, 5]: do not inhibit DDC activity |
| O=C1Nc2ccc(S(=O)(=O)N3CCCCC3)c3cccc1c23 [Compound 15] |  |  |  |  |  | Inhibition of DDC activity [1, 5]: do not inhibit DDC activity |
| O=C(O)c1ccccc1NS(=O)(=O)c1ccc2[nH]c(=O)[nH]c2c1 [Compound 16] |  | 59.8 ± 0.3 | 12.7 | competitive inhibitors |  |  |
| Oc1ccc(/C=N/n2c(S)nnc2-c2ccc(Cl)cc2Cl)cc1 [Compound 18] |  | 63.2 ± 3.1 | 11.5 | competitive inhibitors |  |  |
| Oc1ccccc1/C=N/n1c(S)nnc1-c1ccc(Cl)cc1Cl [Compound 19] |  |  |  |  |  | DDC inhibitory activity in words ([1]; structure-activity discussion): poorly active |
| Oc1ccc(/C=N/n2c(S)nnc2-c2ccccc2)c(O)c1O [Compound 22] | 6.7 ± 0.9 | 15.1 ± 0.1 |  | mixed mode |  | Ki′ [1, 6]: 46.7 ± 0.5 µM |
| Oc1cccc(/C=N/n2c(S)nnc2-c2ccc(Cl)cc2)c1 [Compound 24] | 77.1 ± 2.4 | 120 ± 14 | 11.9 | competitive inhibitors |  |  |
| Oc1ccc(C=Nn2c(S)nnc2-c2ccc(Cl)cc2)c(O)c1 [Compound 26] |  |  | 12.1 | noncompetitive inhibitors; also recorded: Nonconmpetitive |  | Ki′ [1, 6]: 65.2±−4.1^b µM |
| Oc1ccc(C=Nn2c(S)nnc2-c2ccccc2)c(O)c1 [Compound 27] |  | 24.8 ± 1.2 |  | mixed mode |  | Ki′ [1, 6]: 43.1 ± 1.9 µM |
| Oc1cccc(/C=N/n2c(S)nnc2-c2ccccc2Cl)c1 [Compound 28] | 17 ± 1 | 14 ± 1 | 14.7 | competitive inhibitors | 21.1 ± 3.5 |  |
| Oc1ccccc1/C=N/n1c(S)nnc1-c1ccccc1Cl [Compound 29] |  | 44.4 ± 2.3 |  | mixed mode |  | Ki′ [1, 6]: 208 ± 3 µM |
| Oc1c(Br)cc(Br)cc1/C=N/n1c(S)nnc1-c1ccc(Cl)cc1Cl [Compound 32] |  | 4.5 ± 0.3 |  | mixed mode |  | Ki′ [1, 6]: 17 ± 0.2 µM |
| Oc1ccccc1/C=N/n1c(S)nnc1-c1ccc(F)cc1 [Compound 33] |  | 16.5 ± 0.8 |  | mixed mode |  | Ki′ [1, 6]: 325 ± 39 µM |
| Oc1ccc(/C=N/n2c(S)nnc2-c2ccc(F)cc2)cc1O [Compound 34] | 11 ± 0.8 | 10.4 ± 3.3 | 15.8 | competitive inhibitors | 7.1 ± 0.9 |  |
| Oc1ccc(/C=N/n2c(S)nnc2-c2ccc(Cl)cc2Cl)c(O)c1 [Compound 35] | 29 ± 2 |  |  | noncompetitive inhibitors |  | Ki′ [1, 6]: 127±16^b µM |
| Oc1ccc(/C=N/n2cnnc2)cc1O [Compound 38] | 76 ± 5.8 |  | 22,6 |  | 24.5 ± 4.4 | Ki [1, 7]: 24.5 ± 1.4 µM |
| Cc1nnc(S)n1/N=C/c1ccc(O)c(O)c1 [Compound 39] | 27.5 ± 3.3 |  | 19,9 |  | 9.1 ± 0.3 | Ki [1, 8]: 10.8 ± 0.8 µM |
| Oc1ccc(/C=N/n2c(S)nnc2-c2ccco2)cc1O [Compound 40] | 3.5 ± 0.2 |  | 19,4 |  |  | Ki [1, 7]: 1.4 ± 0.1 µM |
| Cc1ccccc1-c1nnc(S)n1/N=C/c1ccc(O)c(O)c1 [Compound 41] | 30.1 ± 2.1 |  | 15,4 |  | 6.1 ± 0.5 | Ki [1, 7]: 9.8 ± 0.5 µM |
| COc1ccc(-c2nnc(S)n2/N=C/c2ccc(O)c(O)c2)cc1 [Compound 44] | 1.7 ± 0.2 |  | 18,4 |  |  | Ki [1, 7]: 0.5 ± 0.1 µM |
| COc1ccccc1-c1nnc(S)n1/N=C/c1ccc(O)c(O)c1 [Compound 47] | > 200 |  |  |  |  | Inhibition of DDC activity ([1]; at 200 µM (the concentration of its maximum solubility)): does not inhibit DDC activity |

The next lines start with results.

| IC50 [1, 3] [µM] | Ki [1, 4] [µM] | BE (binding efficiency) [1] | Inhibition profile [1] | Kd [2] [µM] | SMILES | further results |
| --- | --- | --- | --- | --- | --- | --- |
| 570 ± 66 | 106 ± 7 | 11.9 | competitive inhibition | 240 ± 68 | O=C(O)c1cccc(NS(=O)(=O)c2ccc3nnn(O)c3c2)c1 [Compound 1] | Inhibition of DDC activity [1, 5]: ≥ 70% |
| 12.8 ± 0.4 | 6.03 ± 0.55 |  | mixed inhibition |  | O=C1C(=Cc2ccc(O)c(O)c2)C(=O)c2ccccc21 [Compound 10] | Inhibition of DDC activity [1, 5]: ≥ 70%; Ki′ [1, 6]: 23.1 ± 1.1 µM |
| 27.3 ± 1.6 | 10.7 ± 2.4 | 13.0 | competitive inhibition | 16.1 ± 2.1 | Oc1cccc(/C=N/n2c(S)nnc2-c2ccc(Cl)cc2Cl)c1O [Compound 11] | Inhibition of DDC activity [1, 5]: ≥ 70% |
| 16.8 ± 1.7 | 4.4 ± 1.4 | 13.1 | competitive inhibitors | 17.5 ± 5.1 | O=C(Nc1ccccc1)c1ccccc1NS(=O)(=O)c1ccc2[nH]c(=O)[nH]c2c1 [Compound 17] | increase of affinity ([1]; compared with compound 5): about 13 fold |
|  | 36.8 ± 4.2 | 12.1 | competitive inhibitors | 28.2 ± 3.2 | Oc1cccc(/C=N/n2c(S)nnc2-c2ccc(Cl)cc2Cl)c1 [Compound 20] |  |
| 6.3 ± 0.9 | 2.3 ± 0.4 | 16.3 | competitive inhibitors | 2.5 ± 0.7 | Oc1ccc(/C=N/n2c(S)nnc2-c2ccc(Cl)cc2)cc1O [Compound 21] |  |
|  | < 10 | 16.8 | competitive inhibitors | 4.7 ± 0.5 | Oc1cccc(/C=N/n2c(S)nnc2-c2ccccc2)c1O [Compound 23] | IC50 ([1]; 50 nM enzyme, 10 µM PLP): 16.6 ± 0.3 µM; Ki ([1]; Ki, 50 nM enzyme, L-Dopa, 10 µM PLP, 0.1 M potassium phosphate pH 7.4, 25°C, from Lineweaver–Burk plots): 5.7 ± 0.1 µM |
| 15.2 ± 1.3 | 3.7 ± 0.2 | 15.7 | competitive inhibitors | 2.4 ± 0.1 | Oc1ccc(/C=N/n2c(S)nnc2-c2ccccc2Cl)cc1O [Compound 25] |  |
| 29.8 ± 4.8 | 12.2 ± 0.4 | 12.9 | competitive inhibitors | 25.1 ± 3.5 | Oc1ccc(/C=N/n2c(S)nnc2-c2ccc(Cl)cc2Cl)cc1O [Compound 30] |  |
| 83 ± 12 | 33.4 ± 5 | 15.1 | competitive inhibitors | 31.7 ± 3.4 | Oc1ccccc1/C=N/n1c(S)nnc1-c1ccccc1 [Compound 31] |  |
| 2.4 ± 0.3 | 1.8 ± 1.1 | 18.4 | competitive inhibitors | 1.5 ± 0.2 | Oc1ccc(/C=N/n2c(S)nnc2-c2ccccc2)cc1O [Compound 37] |  |
| 3.5 ± 0.3 |  | 17,4 |  |  | Oc1ccc(/C=N/n2c(S)nnc2COc2ccccc2)cc1O [Compound 46] | Ki [1, 8]: 1.1 ± 0.1 µM |
